Results from PMC5218480 (PLoS ONE, 2017).

Test system: MV-4-11 cells
Experiment: Gene expression microarray analysis (Affymetrix PrimeView) and GSEA
Format: cell-based, human
Parameters: RFU PODN (11730768_x_at) / Fold change /veh PODN (11730768_x_at) / RFU LINC00158 (11744669_a_at) / Fold change /veh LINC00158 (11744669_a_at) / RFU DUSP10 (11751237_a_at) / Fold change /veh DUSP10 (11751237_a_at) / RFU ID3 (11757404_x_at) / Fold change /veh ID3 (11757404_x_at) / RFU PLEKHG5 (11737974_s_at) / Fold change /veh PLEKHG5 (11737974_s_at) / RFU LRRC4B (11730491_at) / Fold change /veh LRRC4B (11730491_at) / RFU GIMAP4 (11747438_a_at) / Fold change /veh GIMAP4 (11747438_a_at) / RFU KRT8 (11758183_x_at) / Fold change /veh KRT8 (11758183_x_at) / RFU CNN1 (11734310_a_at) / Fold change /veh CNN1 (11734310_a_at) / RFU VPS37D (11726825_at) / Fold change /veh VPS37D (11726825_at) / RFU C10orf10 (11716522_x_at) / Fold change /veh C10orf10 (11716522_x_at) / RFU KIR2DL2 /// KIR2DL4 /// KIR2DL5A /// KIR2DL5B /// KIR2DS1 /// KIR2DS2 /// KIR2DS3 /// KIR2DS4 /// KIR3DL3 /// KIR3DL3 /// KIR3DS1 (11738374_at) / Fold change /veh KIR2DL2 /// KIR2DL4 /// KIR2DL5A /// KIR2DL5B /// KIR2DS1 /// KIR2DS2 /// KIR2DS3 /// KIR2DS4 /// KIR3DL3 /// KIR3DL3 /// KIR3DS1 (11738374_at) / RFU C1QL1 (11718748_at) / Fold change /veh C1QL1 (11718748_at) / RFU TMPRSS4 (11747572_a_at) / Fold change /veh TMPRSS4 (11747572_a_at) / RFU HAMP (11756126_x_at) / Fold change /veh HAMP (11756126_x_at) / RFU RNFT2 (11725882_a_at) / Fold change /veh RNFT2 (11725882_a_at) / RFU NR4A2 (11747474_a_at) / Fold change /veh NR4A2 (11747474_a_at) / RFU ABCC12 (11746883_a_at) / Fold change /veh ABCC12 (11746883_a_at) / RFU TMEM136 (11760407_x_at) / Fold change /veh TMEM136 (11760407_x_at) / RFU CLDN22 /// WWC2 (11732394_at) / Fold change /veh CLDN22 /// WWC2 (11732394_at) / RFU HLA-DPB1 (11760878_x_at) / Fold change /veh HLA-DPB1 (11760878_x_at) / RFU SPINT1 (11716480_a_at) / Fold change /veh SPINT1 (11716480_a_at) / RFU GAP43 (11754022_s_at) / Fold change /veh GAP43 (11754022_s_at) / RFU A4GNT (11735810_at) / Fold change /veh A4GNT (11735810_at) / RFU PRB3 (11715151_x_at) / Fold change /veh PRB3 (11715151_x_at) / RFU TUBB4B (11761932_at) / Fold change /veh TUBB4B (11761932_at) / RFU CAPN14 (11732068_a_at) / Fold change /veh CAPN14 (11732068_a_at) / RFU TMCC2 (11721928_a_at) / Fold change /veh TMCC2 (11721928_a_at) / RFU IRGQ (11745062_a_at) / Fold change /veh IRGQ (11745062_a_at) / RFU FAM174B (11720279_a_at) / Fold change /veh FAM174B (11720279_a_at) / RFU TMPRSS4 (11748680_a_at) / Fold change /veh TMPRSS4 (11748680_a_at) / RFU FAM212B (11763350_a_at) / Fold change /veh FAM212B (11763350_a_at) / RFU PLEKHG5 (11743358_a_at) / Fold change /veh PLEKHG5 (11743358_a_at) / RFU ZSCAN30 (11745921_a_at) / Fold change /veh ZSCAN30 (11745921_a_at) / RFU CMKLR1 (11741424_a_at) / Fold change /veh CMKLR1 (11741424_a_at) / RFU LOC101060620 /// MAPK8IP1 (11723275_at) / Fold change /veh LOC101060620 /// MAPK8IP1 (11723275_at) / RFU SPTSSB (11747773_x_at) / Fold change /veh SPTSSB (11747773_x_at) / RFU PRSS12 (11739890_at) / Fold change /veh PRSS12 (11739890_at) / RFU BIN1 (11741810_x_at) / Fold change /veh BIN1 (11741810_x_at) / RFU WNT11 (11732464_a_at) / Fold change /veh WNT11 (11732464_a_at) / RFU C10orf10 (11716521_a_at) / Fold change /veh C10orf10 (11716521_a_at) / RFU C5orf56 (11738089_at) / Fold change /veh C5orf56 (11738089_at) / RFU CYB561 (11721691_x_at) / Fold change /veh CYB561 (11721691_x_at) / RFU ANKRD19P (11752326_a_at) / Fold change /veh ANKRD19P (11752326_a_at) / RFU OR2T12 /// OR2T33 /// OR2T8 (11738714_s_at) / Fold change /veh OR2T12 /// OR2T33 /// OR2T8 (11738714_s_at) / RFU VCAN (11748164_a_at) / Fold change /veh VCAN (11748164_a_at) / RFU JSRP1 (11732532_at) / Fold change /veh JSRP1 (11732532_at) / RFU KRTAP10-11 (11738290_x_at) / Fold change /veh KRTAP10-11 (11738290_x_at) / RFU MYO3A (11730013_a_at) / Fold change /veh MYO3A (11730013_a_at) / RFU EBF3 (11725865_a_at) / Fold change /veh EBF3 (11725865_a_at) / RFU CAMK2N1 (11719241_x_at) / Fold change /veh CAMK2N1 (11719241_x_at) / RFU C5orf56 (11738088_a_at) / Fold change /veh C5orf56 (11738088_a_at) / RFU OLFML3 (11715873_a_at) / Fold change /veh OLFML3 (11715873_a_at) / RFU LOC100653217 /// NTM (11731650_a_at) / Fold change /veh LOC100653217 /// NTM (11731650_a_at) / RFU MAPK11 (11762145_a_at) / Fold change /veh MAPK11 (11762145_a_at) / RFU FIZ1 (11724087_x_at) / Fold change /veh FIZ1 (11724087_x_at) / RFU OASL (11726364_x_at) / Fold change /veh OASL (11726364_x_at) / RFU SOX15 (11748057_x_at) / Fold change /veh SOX15 (11748057_x_at) / RFU CD79A (11719716_a_at) / Fold change /veh CD79A (11719716_a_at) / RFU HIST1H1D (11736915_at) / Fold change /veh HIST1H1D (11736915_at) / RFU CASKIN2 (11723855_a_at) / Fold change /veh CASKIN2 (11723855_a_at) / RFU LOC730098 (11760151_x_at) / Fold change /veh LOC730098 (11760151_x_at) / RFU OR4N2 (11742367_at) / Fold change /veh OR4N2 (11742367_at) / RFU PRRT2 (11749266_a_at) / Fold change /veh PRRT2 (11749266_a_at) / RFU SNX32 (11753110_a_at) / Fold change /veh SNX32 (11753110_a_at) / RFU CDHR5 (11726645_a_at) / Fold change /veh CDHR5 (11726645_a_at) / RFU RCAN1 (11760418_a_at) / Fold change /veh RCAN1 (11760418_a_at) / RFU FAM167A (11723789_a_at) / Fold change /veh FAM167A (11723789_a_at) / RFU FAM26E (11764081_at) / Fold change /veh FAM26E (11764081_at) / RFU ISYNA1 (11749810_s_at) / Fold change /veh ISYNA1 (11749810_s_at) / RFU ACY1 (11761880_at) / Fold change /veh ACY1 (11761880_at) / RFU 11764098_at / Fold change /veh 11764098_at / RFU SAMD14 (11745864_x_at) / Fold change /veh SAMD14 (11745864_x_at) / RFU NPB (11741838_a_at) / Fold change /veh NPB (11741838_a_at) / RFU TMPRSS6 (11731388_a_at) / Fold change /veh TMPRSS6 (11731388_a_at) / RFU KRTAP10-2 (11738614_at) / Fold change /veh KRTAP10-2 (11738614_at) / RFU ARHGAP8 /// PRR5-ARHGAP8 (11727945_x_at) / Fold change /veh ARHGAP8 /// PRR5-ARHGAP8 (11727945_x_at) / RFU KRTAP5-7 /// NADSYN1 (11734609_at) / Fold change /veh KRTAP5-7 /// NADSYN1 (11734609_at) / RFU RASL12 (11751679_a_at) / Fold change /veh RASL12 (11751679_a_at) / RFU CDKN2B (11736163_a_at) / Fold change /veh CDKN2B (11736163_a_at) / RFU PRF1 (11729649_at) / Fold change /veh PRF1 (11729649_at) / RFU, ZNF638 /// ZNF638-IT1 / Fold change vs veh, ZNF638 /// ZNF638-IT1 / RFU, PANK3 / Fold change vs veh, PANK3 / RFU, SH3YL1 / Fold change vs veh, SH3YL1 / RFU, ZEB2 / Fold change vs veh, ZEB2 / RFU, NRIP1 / Fold change vs veh, NRIP1 / RFU, PTTG1IP / Fold change vs veh, PTTG1IP / RFU, CAPN2 / Fold change vs veh, CAPN2 / RFU, MED14 / Fold change vs veh, MED14 / RFU, SNORA58 / Fold change vs veh, SNORA58 / RFU, C1orf63 / Fold change vs veh, C1orf63 / RFU, LRRFIP1 / Fold change vs veh, LRRFIP1 / RFU, NDUFAF7 / Fold change vs veh, NDUFAF7 / RFU, SLC12A2 / Fold change vs veh, SLC12A2 / RFU, IBTK / Fold change vs veh, IBTK / RFU, ESF1 / Fold change vs veh, ESF1 / Fold change vs veh, TMEM50B / RFU, TAOK1 / Fold change vs veh, TAOK1 / RFU, ACBD3 / Fold change vs veh, ACBD3 / RFU, TMA16 / Fold change vs veh, TMA16 / RFU, RWDD3 / Fold change vs veh, RWDD3 / RFU, BCAT1 / Fold change vs veh, BCAT1 / RFU, EDEM3 / Fold change vs veh, EDEM3 / RFU, TMEM33 / Fold change vs veh, TMEM33 / RFU, WDR75 / Fold change vs veh, WDR75 / RFU, AHCTF1 / Fold change vs veh, AHCTF1 / RFU, TFRC / Fold change vs veh, TFRC / RFU, ZDHHC17 / Fold change vs veh, ZDHHC17 / RFU, NOM1 / Fold change vs veh, NOM1 / RFU, ARL8B / Fold change vs veh, ARL8B / RFU, ZBTB11 / Fold change vs veh, ZBTB11 / RFU, TAMM41 / Fold change vs veh, TAMM41 / RFU, KIAA1704 /// LOC100996395 / Fold change vs veh, KIAA1704 /// LOC100996395 / RFU, ING1 / Fold change vs veh, ING1 / RFU, TRMT61B / Fold change vs veh, TRMT61B / RFU, FUBP3 / Fold change vs veh, FUBP3 / RFU, TP53 / Fold change vs veh, TP53 / RFU, TNKS2 / Fold change vs veh, TNKS2 / RFU, ZFP14 / Fold change vs veh, ZFP14 / RFU, ACTR2 / Fold change vs veh, ACTR2 / RFU, PPP3R1 / Fold change vs veh, PPP3R1 / RFU, PIK3R1 / Fold change vs veh, PIK3R1 / RFU, HNRNPA1 / Fold change vs veh, HNRNPA1 / RFU, RNF170 / Fold change vs veh, RNF170 / RFU, ZNF28 / Fold change vs veh, ZNF28 / RFU, RNGTT / Fold change vs veh, RNGTT / RFU, OGT / Fold change vs veh, OGT / RFU, BRD1 / Fold change vs veh, BRD1 / RFU, MARS / Fold change vs veh, MARS / RFU, ZNF655 / Fold change vs veh, ZNF655 / RFU, FAHD1 / Fold change vs veh, FAHD1 / RFU, BDP1 / Fold change vs veh, BDP1 / RFU, LRRCC1 / Fold change vs veh, LRRCC1 / RFU, ARID1A / Fold change vs veh, ARID1A / RFU, ZNF146 / Fold change vs veh, ZNF146 / RFU, ZNF330 / Fold change vs veh, ZNF330 / RFU, GPN3 / Fold change vs veh, GPN3 / RFU, C9orf123 / Fold change vs veh, C9orf123 / RFU, N4BP2L2 / Fold change vs veh, N4BP2L2 / RFU, ARFIP1 / Fold change vs veh, ARFIP1 / RFU, FAM179B / Fold change vs veh, FAM179B / RFU, BCL10 / Fold change vs veh, BCL10 / RFU, UHRF1BP1L / Fold change vs veh, UHRF1BP1L / RFU, BET1 / Fold change vs veh, BET1 / RFU, CNOT2 / Fold change vs veh, CNOT2 / RFU, ZNF268 / Fold change vs veh, ZNF268 / Fold change vs veh, ZNF507 / RFU, DGCR2 / Fold change vs veh, DGCR2 / RFU, WDSUB1 / Fold change vs veh, WDSUB1 / Fold change vs veh, HSP90B1 /// MIR3652 / RFU, ADSS / Fold change vs veh, ADSS / RFU, GK / Fold change vs veh, GK / RFU, ZNF148 / Fold change vs veh, ZNF148 / RFU, TAF9 / Fold change vs veh, TAF9 / RFU, SLC1A5 / Fold change vs veh, SLC1A5 / RFU, SLMO2 / Fold change vs veh, SLMO2 / RFU, ABCC4 / Fold change vs veh, ABCC4 / RFU, LOC101060439 /// RAP1B / Fold change vs veh, LOC101060439 /// RAP1B / RFU, RFX7 / Fold change vs veh, RFX7 / RFU, GTPBP10 / Fold change vs veh, GTPBP10 / RFU, CNEP1R1 / Fold change vs veh, CNEP1R1 / RFU, BIVM-ERCC5 /// ERCC5 / Fold change vs veh, BIVM-ERCC5 /// ERCC5 / RFU, ILF3 / Fold change vs veh, ILF3 / RFU 11762660_at / Fold change /veh 11762660_at / RFU VCAN (11757783_s_at) / Fold change /veh VCAN (11757783_s_at) / RFU DDX43 (11728927_at) / Fold change /veh DDX43 (11728927_at) / RFU KRT8 (11758188_x_at) / Fold change /veh KRT8 (11758188_x_at) / RFU NKD1 (11759106_at) / Fold change /veh NKD1 (11759106_at) / RFU SRD5A1 (11742802_a_at) / Fold change /veh SRD5A1 (11742802_a_at) / RFU TPSAB1 /// TPSB2 (11721975_s_at) / Fold change /veh TPSAB1 /// TPSB2 (11721975_s_at) / RFU GSTM3 (11746129_a_at) / Fold change /veh GSTM3 (11746129_a_at) / RFU IL23R (11737362_x_at) / Fold change /veh IL23R (11737362_x_at) / RFU TMEM51 (11727254_a_at) / Fold change /veh TMEM51 (11727254_a_at) / RFU PIWIL2 (11732686_x_at) / Fold change /veh PIWIL2 (11732686_x_at) / RFU ORM1 (11744905_x_at) / Fold change /veh ORM1 (11744905_x_at) / RFU CCDC152 (11743942_at) / Fold change /veh CCDC152 (11743942_at) / RFU ECM1 (11717891_a_at) / Fold change /veh ECM1 (11717891_a_at) / RFU IL23R (11748794_a_at) / Fold change /veh IL23R (11748794_a_at) / RFU TNFAIP8L3 (11732012_x_at) / Fold change /veh TNFAIP8L3 (11732012_x_at) / RFU MBOAT4 (11741988_at) / Fold change /veh MBOAT4 (11741988_at) / RFU 11764193_at / Fold change /veh 11764193_at / RFU TMEM53 (11763286_at) / Fold change /veh TMEM53 (11763286_at) / RFU MAGEB2 (11727129_at) / Fold change /veh MAGEB2 (11727129_at) / RFU TMEM200A (11744735_a_at) / Fold change /veh TMEM200A (11744735_a_at) / RFU CCDC152 (11751479_a_at) / Fold change /veh CCDC152 (11751479_a_at) / RFU FAM211A (11726209_a_at) / Fold change /veh FAM211A (11726209_a_at) / RFU RGS16 (11746705_a_at) / Fold change /veh RGS16 (11746705_a_at) / RFU VCAN (11755009_s_at) / Fold change /veh VCAN (11755009_s_at) / RFU RHOB (11743442_s_at) / Fold change /veh RHOB (11743442_s_at) / RFU RGS16 (11720943_a_at) / Fold change /veh RGS16 (11720943_a_at) / RFU RGS16 (11720944_at) / Fold change /veh RGS16 (11720944_at) / RFU, VPS4B / Fold change vs veh, VPS4B / RFU, CREB1 / Fold change vs veh, CREB1 / RFU, DNAJC13 / Fold change vs veh, DNAJC13 / RFU, GNAQ / Fold change vs veh, GNAQ / RFU, CDK5R1 / Fold change vs veh, CDK5R1 / RFU, ZRANB3 / Fold change vs veh, ZRANB3 / RFU, CUL4A / Fold change vs veh, CUL4A / RFU, CCNY / Fold change vs veh, CCNY / RFU, UFL1 / Fold change vs veh, UFL1 / RFU, COG3 / Fold change vs veh, COG3 / RFU, DIAPH2 / Fold change vs veh, DIAPH2 / RFU, SKA2 / Fold change vs veh, SKA2 / RFU, AFF3 / Fold change vs veh, AFF3 / RFU, LMF1 / Fold change vs veh, LMF1 / RFU, IPO11 / Fold change vs veh, IPO11 / RFU, DFFB / Fold change vs veh, DFFB / RFU, FOXP1 / Fold change vs veh, FOXP1 / RFU, CARD8 / Fold change vs veh, CARD8 / RFU, STRN3 / Fold change vs veh, STRN3 / RFU, ADK / Fold change vs veh, ADK / RFU, RASSF2 / Fold change vs veh, RASSF2 / RFU, WIPF1 / Fold change vs veh, WIPF1 / RFU, LARP1B / Fold change vs veh, LARP1B / RFU, RASA1 / Fold change vs veh, RASA1 / RFU, RB1 / Fold change vs veh, RB1 / RFU, PPFIA1 / Fold change vs veh, PPFIA1 / RFU, MAT2A / Fold change vs veh, MAT2A / RFU, CCT5 / Fold change vs veh, CCT5 / RFU, WDR92 / Fold change vs veh, WDR92 / RFU, CUX1 / Fold change vs veh, CUX1 / RFU, TTC7A / Fold change vs veh, TTC7A / RFU, TMEM135 / Fold change vs veh, TMEM135 / RFU, DEPTOR / Fold change vs veh, DEPTOR / RFU, CPM / Fold change vs veh, CPM / RFU, DNAJB6 / Fold change vs veh, DNAJB6 / RFU, CACNA2D3 / Fold change vs veh, CACNA2D3 / RFU, DTX4 / Fold change vs veh, DTX4 / RFU, TFCP2 / Fold change vs veh, TFCP2 / RFU, GMCL1 /// GMCL1P1 / Fold change vs veh, GMCL1 /// GMCL1P1 / RFU, AEBP2 / Fold change vs veh, AEBP2 / RFU, SNHG1 /// SNORD22 /// SNORD25 /// SNORD26 /// SNORD27 /// SNORD28 /// SNORD29 /// SNORD31 / Fold change vs veh, SNHG1 /// SNORD22 /// SNORD25 /// SNORD26 /// SNORD27 /// SNORD28 /// SNORD29 /// SNORD31 / Fold change (Aza/veh), C12orf56 (ProbeSet 11735607_a_at) / Fold change (ACY-1035/veh), C12orf56 (ProbeSet 11735607_a_at) / Fold change (Aza/veh), FGFR1OP (ProbeSet 11751329_s_at) / Fold change (ACY-1035/veh), FGFR1OP (ProbeSet 11751329_s_at) / Fold change (Aza/veh), VPS36 (ProbeSet 11739960_a_at) / Fold change (ACY-1035/veh), VPS36 (ProbeSet 11739960_a_at) / RFU SYPL1 (11715823_x_at) / Fold change /veh SYPL1 (11715823_x_at) / RFU IGFBP7 (11715501_s_at) / Fold change /veh IGFBP7 (11715501_s_at) / RFU REEP3 (11722064_at) / Fold change /veh REEP3 (11722064_at) / RFU IGLL1 (11728026_x_at) / Fold change /veh IGLL1 (11728026_x_at): dose or concentration left out as unconfirmed
Details: MV-4-11 cells, 48 hours

Nc1ncn([C@@H]2O[C@H](CO)[C@@H](O)[C@H]2O)c(=O)n1 [azacitidine]
RFU LINC00158 (11744669_a_at): 7.44 RFU
